# Test results published in patent US20090137493A1, “Inhibition of tumor metastases using protein kinase C (PKC) inhibitors” (priority 2007, published 2009).
# Bridges are numbered along the chain shown (N, C = ends). Where no end group is shown, it is not given here.
# Test system: MDA-MB-231 breast cancer cells
# Experiment: Cell migration/invasion assay through a HUVEC monolayer, MDA-MB-231
# Assay type: cell-based, human
# Conditions: peptide 10 μM, re-applied every 2 hours for 10 hours
# Source text: FIGS. 14A and 14B are bar graphs showing the efficacy of TAT carrier peptide (TAT), αV5-3-TAT peptide (Alpha), βIIV5-3 peptide (Beta-2), and εV1-2 (Epsilon) in inhibiting the invasion of human MDA-MB-231 and MCF-7 breast cancer cells through a HUVEC monolayer. FIGS. 14C and 14D are bar graphs showing the efficacy of TAT carrier peptide (TAT) or αV5-3-TAT peptide in inhibiting the invasion of 4T1 (FIG. 11C) and MDA-MB-231 (FIG. 11D) cells.
# FIGS. 14A and 14B show the results of a related experiment measuring the efficacy of TAT carrier peptide (TAT), αV5-3-TAT peptide (Alpha), βIIV5-3 peptide (Beta-2), and εV1-2 peptide (Epsilon) in inhibiting the invasion of human MDA-MB-231 and MCF-7 breast cancer cells through a HUVEC monolayer. FIGS. 14C and 14D show the results of a similar experiment showing the efficacy of TAT carrier peptide (TAT) or αV5-3-TAT peptide in inhibiting the invasion of 4T1 (FIG. 11C) and MDA-MB-231 (FIG. 11D) cells.
# Cell Migration/invasion assay: Primary human endothelial cells (HUVEC's) were plated on top of a matrigel plug in trans-well plates. Once the cells had reached confluence (as determined by examination of a control well), 1×10^6 human breast cancer cells (MCF-7 or MDA-MB-231) expressing luciferase were added above the HUVEC cell layer. Where applicable, peptides were added to a final concentration of 10 μM and re-applied every 2 hours for 10 hours followed by further incubation. After 24-48 hours-incubation the HUVEC cell layer (and all other cells above the matrigel) were removed by scraping of the cell layer into the media and aspiration (repeated 3 times). The relative numbers of cancer cells that had crossed the HUVEC cell layer and entered the matrigel was then determined by bioluminescence detection of luciferase action following addition of luciferin substrate.
substance,measurement,value
YGRKKRRQRRR-CC-QLVIAN (YGRKKRRQRRRCCQLVIAN; disulfide 12-13 (inferred)) [αV5-3-TAT],invasion of MDA-MB-231 cells through a HUVEC monolayer,reduced
